{
  "source": "ChEMBL document CHEMBL1148933",
  "about": "“Tetradehydrohalicyclamine A and 22-hydroxyhalicyclamine A, new cytotoxic bis-piperidine alkaloids from a marine sponge Amphimedon sp” (J Nat Prod, 2004)",
  "tested_on": "P388",
  "experiment": "Cytotoxicity against mouse P388 cells",
  "type": "functional, cell-based",
  "data": [
    {"smiles": "C1=C\\CCCCCC[C@@H]2CN3CC/C=C/C=C\\CCCCc4cc(c[n+](c4)CC\\C=C/1)[C@@H]2CC3.O=C(O)C(F)(F)F.O=C([O-])C(F)(F)F", "note": "[TETRADEHYDROHALICYCLAMINE A]", "values": [
      {"measurement": "IC50", "value": 2.2, "unit": "µg/mL"}
    ]},
    {"smiles": "C1=C2CCCC/C=C\\C=C\\CCN3CC[C@@H]4[C@H](CCCCCC/C=C\\C=C/CCN(C2)C[C@H]14)C3.O=C(O)C(F)(F)F.O=C(O)C(F)(F)F", "note": "[HALICYCLAMINE A TFA]", "values": [
      {"measurement": "IC50", "value": 0.45, "unit": "µg/mL"}
    ]}
  ]
}
